Consider 19 molecules from article PMC6835155, “Lessons from LIMK1 enzymology and their impact on inhibitor design” (Biochemical Journal, 2019).

Test [1] deals with T1, LIMK2KD (Homo sapiens, UniProt P53671).
T1 construct: The cDNA coding for LIMK2 residues 330 to 632 was PCR amplified; His6 (N, cleaved yes); made in house; host or cells: baculovirus; Sf9 for virus, TriEx insect cells for expression
The test is described as follows: Differential (dynamic) scanning fluorimetry (DSF) assay, LIMK2KD. The test is classed as binding.

Test [2] deals with T2, LIMK1KD (Homo sapiens, UniProt P53667).
T2 construct: His6 (N, cleaved yes); made in house; host or cells: baculovirus; Sf9 for virus, TriEx insect cells for expression
Briefly: Differential (dynamic) scanning fluorimetry (DSF) assay, LIMK1KD. The test is classed as binding. The conditions noted are these: for ΔTm at 10 µM: read-out: TM Shift LIMK1 (K).

Where [3] appears, read: LIMK2KD, compound 10 µM, single shot, read-out: TM Shift LIMK2 (K).
Setting [4] is: 2 µM LIMK1KD, compound 10 µM, single shot.
[5] abbreviates: LIMK2KD, compound 10 µM, single shot.

Where two headings read alike, the source gives them in different places.

T1 sequence (P53671 330-632): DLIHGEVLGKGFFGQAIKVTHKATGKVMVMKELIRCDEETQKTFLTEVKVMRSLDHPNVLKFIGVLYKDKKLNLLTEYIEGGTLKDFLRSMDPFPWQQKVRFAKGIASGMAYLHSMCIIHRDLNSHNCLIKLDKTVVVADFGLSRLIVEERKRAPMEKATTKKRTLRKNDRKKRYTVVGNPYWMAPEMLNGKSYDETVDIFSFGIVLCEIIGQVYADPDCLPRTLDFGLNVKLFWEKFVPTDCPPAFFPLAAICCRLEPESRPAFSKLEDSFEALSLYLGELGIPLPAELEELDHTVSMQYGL
T2 sequence (P53667 330-637): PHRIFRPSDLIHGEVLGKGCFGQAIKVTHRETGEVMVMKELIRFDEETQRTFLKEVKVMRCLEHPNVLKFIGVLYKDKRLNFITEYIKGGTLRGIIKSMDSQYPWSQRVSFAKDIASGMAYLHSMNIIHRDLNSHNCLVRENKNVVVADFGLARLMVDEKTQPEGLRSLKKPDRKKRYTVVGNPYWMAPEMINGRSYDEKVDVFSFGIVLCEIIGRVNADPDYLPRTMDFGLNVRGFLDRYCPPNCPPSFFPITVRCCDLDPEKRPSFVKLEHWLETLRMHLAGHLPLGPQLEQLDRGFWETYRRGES

Turning to `COc1cc2nccc(Oc3ccc(NC(=O)NC4CC4)c(Cl)c3)c2cc1C(N)=O` [Lenvatinib (E7080), Lenvatinib], the results for the ΔTm at 10 µM in test [1] (setting [3]) and in test [2] (setting [4]) were 0.1 °C and 0.7 °C, respectively.
For `C[C@]12O[C@H](C[C@]1(O)CO)n1c3ccccc3c3c4c(c5c6ccccc6n2c5c31)CNC4=O` [Lestaurtinib], the ΔTm at 10 µM in test [1] (read-out: TM Shift LIMK2 (K), LIMK2KD, compound 10 µM, single shot) amounted to 2 °C; in test [2] (setting [4]), 5 °C.
For `Cc1ccc(F)c(NC(=O)Nc2ccc(-c3cccc4[nH]nc(N)c34)cc2)c1` [Linifanib], the values for the ΔTm at 10 µM in test [1] (setting [3]) and in test [2] (setting [4]) were 5 °C and 2 °C, respectively.
For the molecule `C[C@]1(O)C[C@@H](c2nc(-c3ccc4ccc(-c5ccccc5)nc4c3)c3c(N)nccn32)C1` [Linsitinib], the “TM Shift LIMK2 (K)” value in test [1] (LIMK2KD, compound 10 µM, single shot, listed as OSI-906 (Linsitinib), 10 µM) is 0.7 K. Besides, in test [1] (setting [3]), the ΔTm at 10 µM came out at 0.9 °C. Also, the “TM Shift LIMK1 (K)” value in test [2] (setting [4]) came to 0.8 K; in test [2] (2 µM LIMK1KD, compound 10 µM, single shot, listed as OSI-906 (Linsitinib)) it was 0.2 K.
For the molecule `Cn1cnc2c(F)c(Nc3ccc(Br)cc3F)c(C(=O)NOCCO)cc21` [MEK162 (ARRY-162, ARRY-438162)], the ΔTm at 10 µM came to 2.1 °C in test [1] (setting [3]) and 0.4 °C in test [2] (setting [4]).
Regarding `COCCNCc1ccc(-c2cc3nccc(Oc4ccc(NC(=S)NC(=O)Cc5ccc(F)cc5)cc4F)c3s2)nc1` [MGCD-265], the ΔTm at 10 µM in test [1] (setting [3]) is 1.1 °C; in test [2] (setting [4]), 3.6 °C.
`C=CCn1c(=O)c2cnc(Nc3ccc(N4CCN(C)CC4)cc3)nc2n1-c1cccc(C(C)(C)O)n1` [MK-1775]: the values for the ΔTm at 10 µM in test [1] (setting [3]) and in test [2] (setting [4]) were 0 °C and 1.2 °C, respectively.
In the case of `Cl.Cl.NC1(c2ccc(-c3nc4ccn5c(=O)[nH]nc5c4cc3-c3ccccc3)cc2)CCC1` [MK-2206 2HCl], the “TM Shift LIMK2 (K)” value in test [1] (setting [5]) is recorded as -1.1 K. The “TM Shift LIMK1 (K)” value in test [2] (setting [4]) is 0.4 K.
`CN(C[C@@H]1COCCO1)S(=O)(=O)Nc1ccc2ccc3ncc(-c4cnn(C)c4)cc3c(=O)c2c1` [MK-2461]: the ΔTm at 10 µM in test [1] (setting [3]) turned out to be 0.3 °C; in test [2] (setting [4]), 0.8 °C.
With `O=C(O)[C@]1(Cc2cccc(Nc3nccs3)n2)CC[C@@H](Oc2cccc(Cl)c2F)CC1` [MK-5108 (VX-689)], the ΔTm at 10 µM in test [1] (setting [3]) was found to be 0.9 °C; in test [2] (setting [4]), 1.5 °C.
Consider `O=C(c1cccc(Cl)c1F)N1CCN(Cc2cccc(Nc3nccs3)n2)CC1` [MK-8745], for which the “TM Shift LIMK2 (K)” value in test [1] (setting [5]) is recorded as -0.3 K. The “TM Shift LIMK1 (K)” value in test [2] (setting [4]) is 1.0 K.
Consider `Cn1cc(-c2cnn3c(N)c(Br)c([C@@H]4CCCNC4)nc23)cn1` [MK-8776 (SCH 900776)], for which the figures for the ΔTm at 10 µM in test [1] (read-out: TM Shift LIMK2 (K)) and in test [2] were 2.2 °C and 1.8 °C, respectively.
As to `O=C(O)c1ccc(Nc2ncc3c(n2)-c2ccc(Cl)cc2C(c2c(F)cccc2F)=NC3)cc1` [MLN8054], the ΔTm at 10 µM in test [1] (setting [3]) is 1 °C; in test [2] (setting [4]), -0.4 °C.
For `Cc1ccc(NC(=O)c2ccc(CN3CCN(C)CC3)cc2)cc1Nc1nc(-c2cccnc2)cs1` [Masitinib (AB1010), Masitinib], the figures for the ΔTm at 10 µM in test [1] (setting [3]) and in test [2] (setting [4]) were 0 °C and 0.4 °C, respectively.
`CO[C@@H]1[C@H](N(C)C(=O)c2ccccc2)C[C@H]2O[C@]1(C)n1c3ccccc3c3c4c(c5c6ccccc6n2c5c31)C(=O)NC4` [Midostaurin]: the ΔTm at 10 µM was 0 °C in test [1] (setting [3]) and 0.1 °C in test [2] (setting [4]).
For `CNC(=O)c1nn(C)c2c1C(C)(C)Cc1cnc(Nc3ccc(N4CCN(C)CC4)cc3)nc1-2` [Milciclib (PHA-848125), Milciclib], the ΔTm at 10 µM was 0.6 °C in test [1] (setting [3]) and 0.2 °C in test [2] (setting [4]).
For the molecule `N#CCNC(=O)c1ccc(-c2ccnc(Nc3ccc(N4CCOCC4)cc3)n2)cc1` [Momelotinib], the “TM Shift LIMK2 (K)” value in test [1] (LIMK2KD, compound 10 µM, single shot, 10 µM) is 4.2 K. In test [2] (setting [4]), the “TM Shift LIMK1 (K)” value was determined as 6.3 K.
`CC1(C)CNc2cc(NC(=O)c3cccnc3NCc3ccncc3)ccc21` [Motesanib Diphosphate (AMG-706), Motesanib Diphosphate]: the figures for the ΔTm at 10 µM in test [1] (setting [3]) and in test [2] (setting [4]) were 0.5 °C and 0.6 °C, respectively.
Consider `FC(F)(F)c1ccc(/C=C/c2nc(COc3ccc(CCCCn4ccnn4)cc3)co2)cc1` [Mubritinib (TAK 165), Mubritinib], for which the ΔTm at 10 µM in test [1] (setting [3]) is -0.4 °C; in test [2] (setting [4]) it was 0.6 °C.
